Non-standard residues stand in square brackets, D forms with d. Residues, ends and D or L forms follow the SMILES beside them. Ala(4-thiazolyl) = N[C@@H](Cc1cscn1)C(=O)O; Nle = CCCC[C@H](N)C(=O)O
Experiments:
[1] = Solubility testing of exendin-4 derivatives (HPLC-UV of supernatant); format: physicochemical; settings: pH 7.4
Description: Prior to the testing of solubility and stability of a peptide batch, its content was determined. Therefore, two parameters were investigated, its purity (HPLC-UV) and the amount of salt load of the batch (ion chromatography).
HPLC-UV was performed after 2 h of gentle agitation from the supernatant, which was obtained by 20 min of centrifugation at 4000 rpm.

[2] = target: T1, human GLP-1 receptor (hGLP-1 R) (Homo sapiens, UniProt P43220); assay: cAMP response (HTRF) of HEK-293 cells stably expressing human GLP-1 receptor; format: cell-based
T1 construct: expressed in transfected cells; host or cells: HEK-293
T1 sequence (P43220 24-463): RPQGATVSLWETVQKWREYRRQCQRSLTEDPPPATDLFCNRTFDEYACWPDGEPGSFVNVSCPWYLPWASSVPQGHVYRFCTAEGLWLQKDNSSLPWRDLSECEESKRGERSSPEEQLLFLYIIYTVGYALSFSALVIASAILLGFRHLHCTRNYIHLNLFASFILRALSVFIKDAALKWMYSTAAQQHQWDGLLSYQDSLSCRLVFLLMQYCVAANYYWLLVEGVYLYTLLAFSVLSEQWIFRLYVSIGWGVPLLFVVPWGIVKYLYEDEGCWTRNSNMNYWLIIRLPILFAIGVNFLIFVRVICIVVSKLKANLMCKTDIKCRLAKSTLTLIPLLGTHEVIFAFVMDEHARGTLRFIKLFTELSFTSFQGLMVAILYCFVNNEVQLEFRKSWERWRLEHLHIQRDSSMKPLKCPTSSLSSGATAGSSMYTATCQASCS
Description: cAMP content of cells was determined using a kit from Cisbio Corp. (cat. no. 62AM4PEC) based on HTRF (Homogenous Time Resolved Fluorescence). For preparation, cells were split into T175 culture flasks and grown overnight to near confluency in medium (DMEM/10% FBS). Medium was then removed and cells washed with PBS lacking calcium and magnesium, followed by proteinase treatment with accutase (Sigma-Aldrich cat. no. A6964). Detached cells were washed and resuspended in assay buffer (1×HBSS; 20 mM HEPES, 0.1% BSA, 2 mM IBMX) and cellular density determined. They were then diluted to 400000 cells/ml and 25 μl-aliquots dispensed into the wells of 96-well plates. For measurement, 25 μl of test compound in assay buffer was added to the wells, followed by incubation for 30 minutes at room temperature. After addition of HTRF reagents diluted in lysis buffer (kit components), the plates were incubated for 1 hr, followed by measurement of the fluorescence ratio at 665/620 nm. In vitro potency of agonists was quantified by determining the concentrations that caused 50% activation of maximal response (EC50).

[3] = target: T2, human glucagon receptor (hGLUC R) (Homo sapiens, UniProt P47871); assay: cAMP response (HTRF) of HEK-293 cells stably expressing human glucagon receptor; format: cell-based; settings: Table 4; read-out: EC50 hGLUC R
T2 construct: expressed in transfected cells; host or cells: HEK-293
T2 sequence (P47871 26-477): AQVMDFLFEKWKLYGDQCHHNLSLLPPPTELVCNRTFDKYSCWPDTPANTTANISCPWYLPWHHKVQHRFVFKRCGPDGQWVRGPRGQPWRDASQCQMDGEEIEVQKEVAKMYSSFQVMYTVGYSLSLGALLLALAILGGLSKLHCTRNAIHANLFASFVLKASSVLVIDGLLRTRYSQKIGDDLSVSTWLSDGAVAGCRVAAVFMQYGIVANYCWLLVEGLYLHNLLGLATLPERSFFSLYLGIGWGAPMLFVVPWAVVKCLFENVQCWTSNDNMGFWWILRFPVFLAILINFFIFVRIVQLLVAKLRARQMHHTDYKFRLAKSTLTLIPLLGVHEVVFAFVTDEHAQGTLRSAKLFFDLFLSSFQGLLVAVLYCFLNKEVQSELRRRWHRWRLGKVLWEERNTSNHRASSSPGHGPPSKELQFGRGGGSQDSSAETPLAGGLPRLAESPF
Procedure, shortened: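 After near-confluent growth in DMEM with 10% FBS, cells were washed in Ca/Mg-free PBS, lifted with accutase and diluted to 400000 cells/ml in IBMX (2 mM)-containing HEPES-buffered HBSS with 0.1% BSA. Compounds were applied for 30 minutes at room temperature before homogeneous time-resolved fluorescence quantitation of cAMP.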

hepatic glycogenolysis = assay: Blood glucose profile in anesthetized rats; format: in vivo, male Wistar rats; settings: for effect on blood glucose: 10 to 30 μg/kg s.c.
Description: The method aimed to study a test compound on the process of hepatic glycogenolysis. The rats had free access to food until the start of the experiment. […] The effect of GCG-mimetic on hepatic glycogenolysis and the subsequent hyperglycemic peak in the blood was compared to the effect obtained with a subcutaneous bolus injection of GCG at a dose of 30 μg/kg.
Rats were anaesthetized with an intraperitoneal injection of pentobarbital sodium (60 mg/kg) and ketamine (10 mg/kg) and tracheotomized. Anesthesia was maintained for up to 5 hours by subcutaneous infusion of pentobarbital sodium (adjusted to the anesthetic depth of the individual animal; about 24 mg/kg/h). Body temperature was monitored with a rectal probe thermometer, and temperature was maintained at 37° C. by means of a heated surgical table. Blood samples for glucose analysis (10 μl) were obtained from the tip of the tail every 15 minutes. The rats were allowed to stabilize their blood glucose levels after surgery for up to 2 hours. Then, GCG as reference compound, or the test compound were administered subcutaneously. For GCG a dose of 30 μg/kg was used to induce hepatic glycogenolysis.

blood glucose = assay: Blood glucose profile in normoglycemic Beagle dogs; format: in vivo, male normoglycemic Beagle dogs; settings: for effect on blood glucose relative to human glucagon: s.c. injection; for induction of a blood glucose response, SEQ. ID 5 vs. SEQ. ID 6: normoglycemic dogs
Description: Male normoglycemic Beagle dogs were fasted overnight before and during the entire experiment. The animals were randomized to groups of n=6 per group. […] The injection solutions were prepared freshly prior to the experiment. The test compound was administered as a single injection via three different routes (s.c., i.m. and i.v.) at doses of 1-100 μg/kg. […] Blood glucose was determined enzymatically (hexokinase method) from whole blood, insulin was analyzed from K-EDTA plasma with a dog-specific ELISA assay.

CCCC[C@H](NC(=O)[C@H](CCC(N)=O)NC(=O)[C@H](CCCCN)NC(=O)[C@H](CO)NC(=O)[C@H](CC(C)C)NC(=O)[C@H](CC(=O)O)NC(=O)[C@H](CO)NC(=O)[C@@H](NC(=O)[C@H](Cc1ccccc1)NC(=O)[C@@H](NC(=O)CNC(=O)[C@H](CCC(N)=O)NC(=O)[C@H](CO)NC(=O)[C@@H](N)Cc1cscn1)[C@@H](C)O)[C@@H](C)O)C(=O)N[C@@H](CCC(=O)O)C(=O)N[C@@H](CO)C(=O)N[C@@H](CCCNC(=N)N)C(=O)N[C@@H](CCCNC(=N)N)C(=O)N[C@@H](C)C(=O)N[C@@H](CCC(N)=O)C(=O)N[C@@H](CC(=O)O)C(=O)N[C@@H](Cc1ccccc1)C(=O)N[C@H](C(=O)N[C@@H](CCC(=O)O)C(=O)N[C@@H](Cc1c[nH]c2ccccc12)C(=O)N[C@@H](CC(C)C)C(=O)N[C@@H](CC(C)C)C(=O)N[C@@H](C)C(=O)N[C@H](C(=O)NCC(=O)N1CCC[C@H]1C(=O)N[C@@H](CCC(=O)O)C(=O)N[C@@H](CO)C(=O)NCC(=O)N[C@@H](C)C(=O)N1CCC[C@H]1C(=O)N1CCC[C@H]1C(=O)N1CCC[C@H]1C(=O)N[C@@H](CO)C(=O)O)[C@@H](C)O)[C@@H](C)CC [SEQ ID NO 3, Tza-S-Q-G-T-F-T-S-D-L-S-K-Q-Nle-ESRRAQDFIEWLLATGPESGAPPPS-OH] (H-[Ala(4-thiazolyl)]SQGTFTSDLSKQ[Nle]ESRRAQDFIEWLLATGPESGAPPPS-OH)
solubility at 2 h [1]: > 10000 µg/mL | EC50 ([2]; Table 4): 44.3 nM | EC50 [3]: 0.0018 nM

CC[C@H](C)[C@H](NC(=O)[C@H](Cc1ccccc1)NC(=O)[C@H](CCC(=O)O)NC(=O)[C@H](CCC(N)=O)NC(=O)[C@H](C)NC(=O)[C@H](CCCNC(=N)N)NC(=O)[C@H](CCCNC(=N)N)NC(=O)[C@H](CO)NC(=O)[C@H](CCC(=O)O)NC(=O)[C@H](CC(C)C)NC(=O)[C@H](CCC(N)=O)NC(=O)[C@H](CCCCN)NC(=O)[C@H](CO)NC(=O)[C@H](Cc1ccc(O)cc1)NC(=O)[C@H](CC(=O)O)NC(=O)[C@H](CO)NC(=O)[C@@H](NC(=O)[C@H](Cc1ccccc1)NC(=O)[C@@H](NC(=O)CNC(=O)[C@H](CCC(N)=O)NC(=O)[C@H](CO)NC(=O)[C@@H](N)Cc1cscn1)[C@@H](C)O)[C@@H](C)O)C(=O)N[C@@H](CCC(=O)O)C(=O)N[C@@H](Cc1c[nH]c2ccccc12)C(=O)N[C@@H](CC(C)C)C(=O)N[C@@H](CC(C)C)C(=O)N[C@@H](C)C(=O)NCC(=O)NCC(=O)N1CCC[C@H]1C(=O)N[C@@H](CCC(=O)O)C(=O)N[C@@H](CO)C(=O)NCC(=O)N[C@@H](C)C(=O)N1CCC[C@H]1C(=O)N1CCC[C@H]1C(=O)N1CCC[C@H]1C(=O)N[C@@H](CO)C(=O)O [SEQ ID NO 5, Tza-SQGTFTSDYSKQLESRRAQEFIEWLLAGGPESGAPPPS-OH]
solubility at 2 h [1]: > 10000 µg/mL | EC50 ([2]; Table 4): 2.19 nM | time of blood glucose peak after injection (hepatic glycogenolysis; 10 μg/kg s.c.): 30 min | blood glucose excursion compared to 30 μg/kg GCG (hepatic glycogenolysis; 20 μg/kg s.c.): nearly comparable shape of blood glucose excursion | time of blood glucose peak after injection (hepatic glycogenolysis; 20 μg/kg s.c.): 45 min | time of blood glucose peak after injection (hepatic glycogenolysis; 30 μg/kg s.c.): 90 min | effect on blood glucose (hepatic glycogenolysis): dose-dependent increase of blood glucose | peak increase of blood glucose (blood glucose; 10 μg/kg s.c., dog): 3.5 to 4 mmol/L | subcutaneous versus intramuscular injection (blood glucose; dog): no difference in activity and blood glucose time-action profile | glucose excursion at higher doses (blood glucose; doses beyond 10 μg/kg s.c., dog): did no longer result in higher glucose excursion | effect on blood glucose relative to human glucagon (blood glucose; dog): mimicked the effect of human glucagon on blood glucose | duration of the glucose response (blood glucose; s.c., dog, versus human glucagon): slightly longer | induction of a blood glucose response, SEQ. ID 5 vs. SEQ. ID 6 (blood glucose; s.c.): similarly active | activity by route of administration (blood glucose; subcutaneous, intramuscular and intravenous injection, dog): active through all parenteral routes

CC[C@H](C)[C@H](NC(=O)[C@H](Cc1ccccc1)NC(=O)[C@H](CCC(=O)O)NC(=O)[C@H](CCC(N)=O)NC(=O)[C@H](C)NC(=O)[C@H](CCCNC(=N)N)NC(=O)[C@H](CCCNC(=N)N)NC(=O)[C@H](CO)NC(=O)[C@H](CCC(=O)O)NC(=O)[C@H](CC(C)C)NC(=O)[C@H](CCC(N)=O)NC(=O)[C@H](CCCCN)NC(=O)[C@H](CO)NC(=O)[C@H](Cc1ccc(O)cc1)NC(=O)[C@H](CC(=O)O)NC(=O)[C@H](CO)NC(=O)[C@@H](NC(=O)[C@H](Cc1ccccc1)NC(=O)[C@@H](NC(=O)CNC(=O)[C@H](CCC(N)=O)NC(=O)[C@H](CO)NC(=O)[C@@H](N)Cc1cscn1)[C@@H](C)O)[C@@H](C)O)C(=O)N[C@@H](CCC(=O)O)C(=O)N[C@@H](Cc1c[nH]c2ccccc12)C(=O)N[C@@H](CC(C)C)C(=O)N[C@@H](CC(C)C)C(=O)N[C@@H](C)C(=O)N[C@H](C(=O)NCC(=O)N1CCC[C@H]1C(=O)N[C@@H](CCC(=O)O)C(=O)N[C@@H](CO)C(=O)NCC(=O)N[C@@H](C)C(=O)N1CCC[C@H]1C(=O)N1CCC[C@H]1C(=O)N1CCC[C@H]1C(=O)N[C@@H](CO)C(=O)O)[C@@H](C)O [SEQ ID NO 6, Tza-SQGTFTSDYSKQLESRRAQEFIEWLLATGPESGAPPPS-OH]
solubility at 2 h [1]: > 10000 µg/mL | EC50 ([2]; Table 4): 9.3 nM | blood glucose excursion compared to 30 μg/kg GCG (hepatic glycogenolysis; 10 μg/kg s.c.): more powerful blood glucose excursion | time of blood glucose peak after injection (hepatic glycogenolysis; 10 μg/kg s.c.): 30 min | time of blood glucose peak after injection (hepatic glycogenolysis; 30 μg/kg s.c.): 60 min | effect on blood glucose (hepatic glycogenolysis): dose-dependent increase of blood glucose | effect on blood glucose relative to human glucagon (blood glucose; dog): mimicked the effect of human glucagon on blood glucose | induction of a blood glucose response, SEQ. ID 5 vs. SEQ. ID 6 (blood glucose; s.c.): similarly active

CC[C@H](C)[C@H](NC(=O)[C@H](Cc1ccccc1)NC(=O)[C@H](CCC(=O)O)NC(=O)[C@H](CCC(N)=O)NC(=O)[C@H](C)NC(=O)[C@H](CCCNC(=N)N)NC(=O)[C@H](CCCNC(=N)N)NC(=O)[C@H](CO)NC(=O)[C@H](CCC(=O)O)NC(=O)[C@H](CC(C)C)NC(=O)[C@H](CCC(N)=O)NC(=O)[C@H](CCCCN)NC(=O)[C@H](CO)NC(=O)[C@@H](NC(=O)[C@H](CC(=O)O)NC(=O)[C@H](CO)NC(=O)[C@@H](NC(=O)[C@H](Cc1ccccc1)NC(=O)[C@@H](NC(=O)CNC(=O)[C@H](CCC(N)=O)NC(=O)[C@H](CO)NC(=O)[C@@H](N)Cc1cscn1)[C@@H](C)O)[C@@H](C)O)C(C)C)C(=O)N[C@@H](CCC(=O)O)C(=O)N[C@@H](Cc1c[nH]c2ccccc12)C(=O)N[C@@H](CC(C)C)C(=O)N[C@@H](CC(C)C)C(=O)N[C@@H](C)C(=O)NCC(=O)NCC(=O)N1CCC[C@H]1C(=O)N[C@@H](CCC(=O)O)C(=O)N[C@@H](CO)C(=O)NCC(=O)N[C@@H](C)C(=O)N1CCC[C@H]1C(=O)N1CCC[C@H]1C(=O)N1CCC[C@H]1C(=O)N[C@@H](CO)C(=O)O [SEQ ID NO 9, Tza-SQGTFTSDVSKQLESRRAQEFIEWLLAGGPESGAPPPS-OH] (H-[Ala(4-thiazolyl)]SQGTFTSDVSKQLESRRAQEFIEWLLAGGPESGAPPPS-OH)
solubility at 2 h [1]: > 10000 µg/mL | EC50 [3]: 0.0022 nM

CC[C@H](C)[C@H](NC(=O)[C@H](Cc1ccccc1)NC(=O)[C@H](CC(=O)O)NC(=O)[C@H](CCC(N)=O)NC(=O)[C@H](C)NC(=O)[C@H](CCCNC(=N)N)NC(=O)[C@H](CCCNC(=N)N)NC(=O)[C@H](CO)NC(=O)[C@H](CCC(=O)O)NC(=O)[C@H](CC(C)C)NC(=O)[C@H](CCC(N)=O)NC(=O)[C@H](CCCCN)NC(=O)[C@H](CO)NC(=O)[C@H](CC(C)C)NC(=O)[C@H](CC(=O)O)NC(=O)[C@H](CO)NC(=O)[C@@H](NC(=O)[C@H](Cc1ccccc1)NC(=O)[C@@H](NC(=O)CNC(=O)[C@H](CCC(N)=O)NC(=O)[C@H](CO)NC(=O)[C@@H](N)Cc1cscn1)[C@@H](C)O)[C@@H](C)O)C(=O)N[C@@H](CCC(=O)O)C(=O)N[C@@H](Cc1c[nH]c2ccccc12)C(=O)N[C@@H](CC(C)C)C(=O)N[C@@H](CC(C)C)C(=O)N[C@@H](C)C(=O)N[C@H](C(=O)NCC(=O)N1CCC[C@H]1C(=O)N[C@@H](CCC(=O)O)C(=O)N[C@@H](CO)C(=O)NCC(=O)N[C@@H](C)C(=O)N1CCC[C@H]1C(=O)N1CCC[C@H]1C(=O)N1CCC[C@H]1C(=O)N[C@@H](CO)C(=O)O)[C@@H](C)O [SEQ ID NO 15, Tza-SQGTFTSDLSKQLESRRAQDFIEWLLATGPESGAPPPS-OH] (H-[Ala(4-thiazolyl)]SQGTFTSDLSKQLESRRAQDFIEWLLATGPESGAPPPS-OH)
solubility at 2 h [1]: > 10000 µg/mL | EC50 ([2]; Table 4): 34.5 nM | EC50 ([2]; Table 5, Tza vs. His in position 1): 19.7 nM | EC50 [3]: 0.0022 nM
